From article PMC3102498 (Journal of neuro-oncology, 2010)

What was measured:
[1] = Temozolomide exposure, continuous daily dosing compared to standard 5-day dosing; type: in vivo, human; settings: 50 mg/m2/day continuous compared to 150–200 mg/m2/day for 5 days each month
[2] = Phase 2 trial toxicity graded according to NCI CTC version 2
[3] = Sorafenib plasma pharmacokinetics; type: in vivo, human; settings: for sorafenib exposure (AUC0–24) on day 28, patients on vs not on EIAEDs: day 28 of cycle 1, P = 0.0431; for AUC(0-t): AUC0–8 (mean)
[4] = cited from earlier work

greater temozolomide exposure with continuous daily dosing [1]	sorafenib exposure on day 1, patients on vs not on EIAEDs ([3]; day 1 of cycle 1)	AUC(0-t) ([3]; human, plasma, oral, 400 mg, patients not on EIAEDs, day 1, n = 5 per group)	AUC(0-t) ([3]; human, plasma, oral, 400 mg, patients not on EIAEDs, day 28, n = 5 per group)	AUC ([3]; human, plasma, oral, 400 mg, AUC(24) (mean), Non-EIAED patients, day 28 of cycle 1, plasma)	Cmax ([3]; human, plasma, oral, 400 mg, C max (mean), Non-EIAED patients, day 28 of cycle 1, plasma)	difference in mean AUC0–8, day 28 vs day 1 ([3]; patients not on EIAEDs)	sorafenib AUC0–24 day 28 compared to day 1 ([3]; patients not on EIAEDs, P = 0.0117)	sorafenib AUC0–24 day 28 compared to day 1 ([3]; patients on EIAEDs, P = 0.7266)	SMILES	patients requiring dose modification or discontinuation of daily temozolomide ([2]; 32 patients)	sorafenib exposure (AUC0–24) on day 28, patients on vs not on EIAEDs [3]	sorafenib exposure (AUC0–24) on day 28, patients on vs not on EIAEDs ([3]; listed as sorafenib)	reduction in sorafenib exposure ([4]; co-administration of rifampin, a CYP3A4 and UGT 1A9 inducer)	effect of ketoconazole co-administration on sorafenib ([4]; ketoconazole (CYP3A inhibitor) with low-dose sorafenib 50 mg/day)	sorafenib exposures, patients on vs not on EIAEDs ([4]; phase I dose escalation study, malignant glioma patients, day one of cycle one)	increase of sorafenib exposures over seven days (to steady-state) ([4]; prior pharmacokinetic studies)	Amylase/lipase, dose modification or discontinuation of sorafenib ([2]; n = 32)	Palmer-Plantar Erythrodysesthesia, dose modification or discontinuation of sorafenib ([2]; n = 32)
1.4–1.9 fold	–	–	–	–	–	–	–	–	Cn1nnc2c(C(N)=O)ncn2c1=O [temozolomide, Temozolomide]	none of the patients	–	–	–	–	–	–	–	–
–	comparable	11.1 µg·h/mL	52.1 µg·h/mL	129 µg·h/mL	8.12 µg/mL	~5 fold	significantly higher	did not differ significantly	CNC(=O)c1cc(Oc2ccc(NC(=O)Nc3ccc(Cl)c(C(F)(F)F)c3)cc2)ccn1 [Sorafenib]	–	significantly lower on day 28 for patients on EIAEDs	significantly higher on day 28 for patients not on EIAEDs	37%	did not result in unexpected adverse events or evidence of altered sorafenib pharmacokinetics	comparable	3–4 fold	4 (13) number of patients (percent of	3 (9) number of patients (percent of
